The values below come from ChEMBL document CHEMBL1201862, “PubChem BioAssay data set” (2004).

Some targets named below: Cytochrome P450 2D6 (Homo sapiens, UniProt P10635); Cytochrome P450 3A4 (Homo sapiens, UniProt P08684); Cytochrome P450 2C9 (Homo sapiens, UniProt P11712).
In assay [1] the target is T1, Heat shock factor protein 1 (Mus musculus, UniProt P38532).
T1 sequence (P38532 whole entry): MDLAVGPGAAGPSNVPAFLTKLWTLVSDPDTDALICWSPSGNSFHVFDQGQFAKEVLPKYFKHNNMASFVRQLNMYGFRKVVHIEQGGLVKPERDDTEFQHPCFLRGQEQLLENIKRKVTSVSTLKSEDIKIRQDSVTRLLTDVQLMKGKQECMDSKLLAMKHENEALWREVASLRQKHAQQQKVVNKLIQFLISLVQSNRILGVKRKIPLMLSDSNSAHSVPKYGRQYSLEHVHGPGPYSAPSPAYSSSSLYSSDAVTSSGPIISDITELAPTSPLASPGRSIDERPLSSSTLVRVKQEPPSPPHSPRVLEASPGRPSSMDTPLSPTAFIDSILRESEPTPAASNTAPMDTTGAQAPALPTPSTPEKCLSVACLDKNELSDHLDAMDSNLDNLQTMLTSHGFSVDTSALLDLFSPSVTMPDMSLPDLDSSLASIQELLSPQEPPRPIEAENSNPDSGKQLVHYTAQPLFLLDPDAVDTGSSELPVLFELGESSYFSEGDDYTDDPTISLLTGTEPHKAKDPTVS
Nature of the assay: enhancement of HSF1-driven luciferase signal – cell-based, NIH3T3, luminescence, dose retest, confirmation (AID 435004).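 Further: stress induced by proteasome inhibitor MG132 added 30 min after compound; luciferase reporter driven by HSF1 response element in NIH3T3 cells; actives raise luminescence as potentiators of the MG132 stress response.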 The assay is classed as functional.

Assay [2] concerns the target T2, Polyadenylate-binding protein 1 (Homo sapiens, UniProt P11940). Nature of the assay: MLLE domain peptide-binding blockers, IC50 – biochemical, fluorescence polarization, FITC-PAM2 peptide, dose response (AID 602259). The assay is classed as functional. The following applies: read-out: IC50_Mean. (Fluorescence polarisation rises when a labelled molecule tumbles more slowly, as on binding a larger partner.)

Assay [3] has as its target T2, Polyadenylate-binding protein 1. Nature of the assay: MLLE binding blockers, Cy5 peptide tracer – biochemical, fluorescence polarization, Cy5-PAM2 peptide, secondary, miRNA deadenylation inhibitor project, dose response (AID 602260). The assay is classed as functional. The following applies: read-out: IC50_Mean.
Another assay has as its target Cytochrome P450 2C19 (Homo sapiens, UniProt P33261). Briefly: Cytochrome panel assay with activity outcomes. Panel member name: p450-cyp2c19 Compounds with AC50 equal or less than 10 uM are considered active. The assay is classed as functional. Conditions: read-out: AC50.
For a further assay, the target named is T3, Cytochrome P450 1A2 (Homo sapiens, UniProt P05177).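 Further: PubChem cytochrome P450 panel assay, CYP1A2 panel member.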
T3 sequence (P05177 whole entry): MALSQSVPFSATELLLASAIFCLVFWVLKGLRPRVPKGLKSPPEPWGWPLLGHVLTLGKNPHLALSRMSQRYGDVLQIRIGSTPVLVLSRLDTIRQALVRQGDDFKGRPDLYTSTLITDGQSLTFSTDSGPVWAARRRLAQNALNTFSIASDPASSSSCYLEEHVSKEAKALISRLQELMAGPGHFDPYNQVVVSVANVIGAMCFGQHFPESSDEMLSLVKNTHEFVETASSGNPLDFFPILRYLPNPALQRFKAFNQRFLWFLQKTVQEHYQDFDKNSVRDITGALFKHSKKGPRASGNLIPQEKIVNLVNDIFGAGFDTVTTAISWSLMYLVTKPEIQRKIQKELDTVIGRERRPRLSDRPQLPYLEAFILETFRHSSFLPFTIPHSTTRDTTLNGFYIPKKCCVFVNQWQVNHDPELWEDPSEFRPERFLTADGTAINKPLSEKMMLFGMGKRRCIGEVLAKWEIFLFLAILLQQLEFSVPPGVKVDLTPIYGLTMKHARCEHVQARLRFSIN

Assay [4] has as its target T4, Replicative DNA helicase DnaB (Mycobacterium tuberculosis, UniProt P9WMR3).
T4 sequence (P9WMR3 whole entry): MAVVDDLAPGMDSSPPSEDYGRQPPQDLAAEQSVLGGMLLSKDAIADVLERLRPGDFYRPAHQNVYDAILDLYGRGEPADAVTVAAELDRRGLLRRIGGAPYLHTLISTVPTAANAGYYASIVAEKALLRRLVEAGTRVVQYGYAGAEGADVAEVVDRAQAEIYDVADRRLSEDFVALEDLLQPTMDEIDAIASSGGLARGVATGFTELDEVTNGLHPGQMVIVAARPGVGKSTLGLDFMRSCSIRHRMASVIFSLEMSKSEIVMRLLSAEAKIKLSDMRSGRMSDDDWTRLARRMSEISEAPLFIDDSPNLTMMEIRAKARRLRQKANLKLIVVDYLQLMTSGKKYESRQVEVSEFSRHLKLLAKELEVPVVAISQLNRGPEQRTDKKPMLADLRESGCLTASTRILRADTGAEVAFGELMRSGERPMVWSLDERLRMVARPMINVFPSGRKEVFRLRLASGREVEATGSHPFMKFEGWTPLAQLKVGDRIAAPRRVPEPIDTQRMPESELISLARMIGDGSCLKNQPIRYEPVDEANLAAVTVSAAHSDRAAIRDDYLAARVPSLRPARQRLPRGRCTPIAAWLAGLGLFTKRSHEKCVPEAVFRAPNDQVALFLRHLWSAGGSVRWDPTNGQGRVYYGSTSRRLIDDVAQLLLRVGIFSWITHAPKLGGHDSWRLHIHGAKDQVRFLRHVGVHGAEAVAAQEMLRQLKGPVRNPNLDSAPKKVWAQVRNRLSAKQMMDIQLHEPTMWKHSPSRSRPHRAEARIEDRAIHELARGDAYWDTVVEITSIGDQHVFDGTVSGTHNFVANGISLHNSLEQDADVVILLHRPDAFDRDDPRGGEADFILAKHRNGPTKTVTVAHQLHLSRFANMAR
Nature of the assay: DnaB intein splicing inhibitors, dose response, biochemical, cell-free fluorescence (AID 449749). The assay is classed as functional.

The target of the next assay is T5, Protein RecA (Mycobacterium tuberculosis, UniProt P9WHJ3).
T5 sequence (P9WHJ3 whole entry): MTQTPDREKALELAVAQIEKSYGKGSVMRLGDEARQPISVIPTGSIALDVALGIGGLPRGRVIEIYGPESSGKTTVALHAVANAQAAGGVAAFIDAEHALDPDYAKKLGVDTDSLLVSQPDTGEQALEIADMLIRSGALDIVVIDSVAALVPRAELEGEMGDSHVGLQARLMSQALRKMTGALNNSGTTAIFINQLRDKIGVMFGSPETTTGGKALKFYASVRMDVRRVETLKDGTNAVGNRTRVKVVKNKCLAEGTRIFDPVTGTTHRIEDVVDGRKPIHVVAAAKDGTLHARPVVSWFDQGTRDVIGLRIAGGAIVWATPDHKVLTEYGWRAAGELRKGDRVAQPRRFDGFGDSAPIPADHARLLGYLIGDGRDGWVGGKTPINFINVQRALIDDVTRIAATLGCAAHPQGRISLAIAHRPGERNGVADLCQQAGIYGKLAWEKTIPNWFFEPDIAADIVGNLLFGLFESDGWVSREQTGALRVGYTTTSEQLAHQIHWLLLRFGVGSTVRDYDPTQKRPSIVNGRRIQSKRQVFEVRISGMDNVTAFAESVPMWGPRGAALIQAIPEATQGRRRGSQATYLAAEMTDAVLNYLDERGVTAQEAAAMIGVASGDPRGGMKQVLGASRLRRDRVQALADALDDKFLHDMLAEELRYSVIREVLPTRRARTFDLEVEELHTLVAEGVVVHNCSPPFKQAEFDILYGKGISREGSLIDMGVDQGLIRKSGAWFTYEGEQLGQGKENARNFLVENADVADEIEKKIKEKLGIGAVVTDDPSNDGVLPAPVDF
Nature of the assay: Fluorescence Cell-Free Homogeneous Dose Retest to Identify Inhibitors of RecA-Intein Splicing Activity. [Related pubchem assays (depositor defined):AID2097, AID2223, AID489010, AID492950]. The assay is classed as functional.

The target in another assay is Large T antigen (Simian virus 40, UniProt P03070). The assay is classed as functional, Betapolyomavirus macacae.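 Further: Confirmatory-stage PubChem screen for compounds that inhibit SV40 T antigen.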
Another assay concerns Vero. Briefly: cells. The assay is classed as functional. Conditions: Chlorocebus sabaeus.
Assay [5] can be described thus: P. falciparum Dd2 growth inhibitors, dose response, SYBR Green, cherry-picked samples (AID 1159567). The assay is classed as functional, cell-based.

Activity calls are given as the source filed them.

Sequence of Cytochrome P450 2C19 (P33261 whole entry): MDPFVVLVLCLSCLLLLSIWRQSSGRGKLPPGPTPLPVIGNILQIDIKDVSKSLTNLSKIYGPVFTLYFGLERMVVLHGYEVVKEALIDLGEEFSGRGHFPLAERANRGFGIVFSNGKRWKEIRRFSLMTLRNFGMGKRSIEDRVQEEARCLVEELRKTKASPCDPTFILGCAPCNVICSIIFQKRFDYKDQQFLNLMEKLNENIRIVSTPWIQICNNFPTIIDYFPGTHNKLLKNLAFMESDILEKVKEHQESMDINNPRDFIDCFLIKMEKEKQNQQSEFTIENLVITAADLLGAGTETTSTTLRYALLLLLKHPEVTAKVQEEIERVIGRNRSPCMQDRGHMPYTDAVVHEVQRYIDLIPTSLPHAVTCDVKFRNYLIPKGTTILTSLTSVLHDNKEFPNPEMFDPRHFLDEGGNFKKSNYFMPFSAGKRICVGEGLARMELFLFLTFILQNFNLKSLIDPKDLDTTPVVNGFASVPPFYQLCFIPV
Sequence of Cytochrome P450 3A4 (P08684 whole entry): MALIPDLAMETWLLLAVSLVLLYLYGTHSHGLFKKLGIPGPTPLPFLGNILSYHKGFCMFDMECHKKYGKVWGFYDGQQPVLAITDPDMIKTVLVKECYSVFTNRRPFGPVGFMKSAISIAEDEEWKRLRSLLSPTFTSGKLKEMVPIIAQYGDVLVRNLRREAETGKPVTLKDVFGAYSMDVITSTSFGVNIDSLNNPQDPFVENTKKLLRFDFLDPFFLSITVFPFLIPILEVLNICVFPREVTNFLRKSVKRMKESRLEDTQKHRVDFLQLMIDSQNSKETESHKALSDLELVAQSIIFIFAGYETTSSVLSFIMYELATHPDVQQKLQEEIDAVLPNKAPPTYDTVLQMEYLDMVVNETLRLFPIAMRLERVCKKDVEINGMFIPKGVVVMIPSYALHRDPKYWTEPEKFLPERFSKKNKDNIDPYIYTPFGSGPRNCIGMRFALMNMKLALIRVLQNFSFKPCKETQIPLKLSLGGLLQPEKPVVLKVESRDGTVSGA
T2 sequence (P11940 whole entry, the tested form may be a part): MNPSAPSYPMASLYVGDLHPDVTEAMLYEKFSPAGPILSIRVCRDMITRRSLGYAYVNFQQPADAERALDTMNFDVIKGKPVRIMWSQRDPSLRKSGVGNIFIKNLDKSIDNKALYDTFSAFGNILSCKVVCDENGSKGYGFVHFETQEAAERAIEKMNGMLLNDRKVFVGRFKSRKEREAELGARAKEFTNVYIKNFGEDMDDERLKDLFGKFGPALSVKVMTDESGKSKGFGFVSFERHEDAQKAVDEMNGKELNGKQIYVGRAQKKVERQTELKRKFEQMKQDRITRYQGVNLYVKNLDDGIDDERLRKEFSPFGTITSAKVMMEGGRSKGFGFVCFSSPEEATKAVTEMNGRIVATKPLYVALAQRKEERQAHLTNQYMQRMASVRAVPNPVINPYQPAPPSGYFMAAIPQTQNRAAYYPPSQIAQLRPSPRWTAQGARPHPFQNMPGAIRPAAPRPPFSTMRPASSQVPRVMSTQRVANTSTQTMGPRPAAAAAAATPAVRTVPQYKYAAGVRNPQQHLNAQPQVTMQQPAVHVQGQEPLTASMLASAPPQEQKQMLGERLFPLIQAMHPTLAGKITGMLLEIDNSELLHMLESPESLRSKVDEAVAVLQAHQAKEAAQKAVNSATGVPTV
Sequence of Cytochrome P450 2D6 (P10635 whole entry): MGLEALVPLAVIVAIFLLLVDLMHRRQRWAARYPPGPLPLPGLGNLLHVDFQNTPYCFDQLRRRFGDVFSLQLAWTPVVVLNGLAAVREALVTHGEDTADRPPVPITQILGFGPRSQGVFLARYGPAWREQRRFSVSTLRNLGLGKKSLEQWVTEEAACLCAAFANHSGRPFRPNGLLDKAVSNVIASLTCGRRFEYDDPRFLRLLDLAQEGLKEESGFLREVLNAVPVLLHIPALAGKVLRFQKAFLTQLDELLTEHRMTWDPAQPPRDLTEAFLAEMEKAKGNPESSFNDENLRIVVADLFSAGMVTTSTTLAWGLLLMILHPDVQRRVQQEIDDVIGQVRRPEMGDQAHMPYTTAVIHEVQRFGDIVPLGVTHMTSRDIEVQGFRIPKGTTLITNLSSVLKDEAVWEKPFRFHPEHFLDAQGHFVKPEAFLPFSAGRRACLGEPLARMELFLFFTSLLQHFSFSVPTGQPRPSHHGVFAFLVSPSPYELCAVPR
Sequence of Cytochrome P450 2C9 (P11712 whole entry): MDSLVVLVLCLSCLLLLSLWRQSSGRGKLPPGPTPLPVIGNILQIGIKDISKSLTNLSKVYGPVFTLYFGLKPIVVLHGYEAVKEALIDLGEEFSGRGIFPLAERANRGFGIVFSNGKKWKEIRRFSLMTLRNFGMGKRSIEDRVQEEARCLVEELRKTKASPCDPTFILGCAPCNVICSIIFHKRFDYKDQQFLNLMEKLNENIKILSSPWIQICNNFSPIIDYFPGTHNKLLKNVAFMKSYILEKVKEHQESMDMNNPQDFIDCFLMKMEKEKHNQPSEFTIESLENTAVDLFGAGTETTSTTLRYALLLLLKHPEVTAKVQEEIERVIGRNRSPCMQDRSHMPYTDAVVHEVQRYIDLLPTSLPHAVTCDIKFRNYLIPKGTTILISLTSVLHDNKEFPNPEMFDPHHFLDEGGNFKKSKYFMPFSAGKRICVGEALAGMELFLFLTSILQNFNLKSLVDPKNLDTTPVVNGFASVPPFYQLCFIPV
Sequence of Large T antigen (P03070 whole entry): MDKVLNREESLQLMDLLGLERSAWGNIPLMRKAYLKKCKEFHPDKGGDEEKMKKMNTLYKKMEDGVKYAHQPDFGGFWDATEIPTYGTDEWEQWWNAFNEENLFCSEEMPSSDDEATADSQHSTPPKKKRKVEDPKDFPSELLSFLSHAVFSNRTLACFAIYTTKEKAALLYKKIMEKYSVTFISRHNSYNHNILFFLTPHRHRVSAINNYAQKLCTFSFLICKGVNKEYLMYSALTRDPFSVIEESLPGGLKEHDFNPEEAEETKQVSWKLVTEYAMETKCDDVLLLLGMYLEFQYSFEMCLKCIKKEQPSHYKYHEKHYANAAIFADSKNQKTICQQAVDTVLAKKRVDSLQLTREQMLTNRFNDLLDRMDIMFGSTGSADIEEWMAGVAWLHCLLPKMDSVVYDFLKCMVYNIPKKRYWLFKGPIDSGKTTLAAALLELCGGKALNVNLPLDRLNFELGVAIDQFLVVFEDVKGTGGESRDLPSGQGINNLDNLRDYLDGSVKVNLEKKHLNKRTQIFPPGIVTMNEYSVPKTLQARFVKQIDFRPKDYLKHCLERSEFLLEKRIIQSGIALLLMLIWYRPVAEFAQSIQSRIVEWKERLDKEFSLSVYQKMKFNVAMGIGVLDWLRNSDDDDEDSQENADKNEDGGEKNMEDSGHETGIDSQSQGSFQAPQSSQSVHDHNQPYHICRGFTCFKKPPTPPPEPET

On to `COc1ccc(S(=O)(=O)N2CCC(C(=O)NCc3cccnc3)CC2)cc1C`, for which the EC50 (as a rule, the concentration that produces a half-maximal response) in [1] is > 260 µM (inactive).

For `COc1ccc(Nc2ccc([N+](=O)[O-])cn2)cn1`, the values for the IC50 in [2] and in [3] were 59.6 µM (inactive) and > 66 µM (inactive), respectively.

For `N=c1n(-c2ccccc2)c(O)cc(=O)n1-c1ccccc1`, the results for the AC50 on Cytochrome P450 2D6 and at Cytochrome P450 3A4 were 22.4 µM (inconclusive) and 25.1 µM (inconclusive), respectively.

For the compound `Fc1cc(NCc2ccccc2)nc(NCc2ccccc2)n1`, the EC50 in assay [1] was 91.1 µM (active).

With `COc1ccc(-c2nnn(Cc3nc(N)nc(N4CCOCC4)n3)n2)cc1OC`, the AC50 (usually the concentration at which the activity in the assay is half-maximal) was 35.5 µM (inconclusive) on Cytochrome P450 2C19, 12.6 µM (inconclusive) on Cytochrome P450 2D6, 28.2 µM (inconclusive) on Cytochrome P450 3A4 and 25.1 µM (inconclusive) at Cytochrome P450 2C9.

With `COC(=O)c1c(NC(=O)c2ccc(C)o2)sc2c1CCCCC2`, the IC50 in assay [2] and in [3] was > 66 µM (inactive) each time.

As to `CCOC(=O)/C(C#N)=C1/SC(CC)C(=O)N1c1ccc(Br)cc1` (stereo unspecified), the figures for the AC50 on Cytochrome P450 2D6, on Cytochrome P450 3A4 and at Cytochrome P450 1A2 were 11.2 µM (inconclusive), 28.2 µM (inconclusive) and 31.6 µM (inconclusive), respectively.

For `Cc1ccc(S(=O)(=O)Cc2cc(F)c([N+](=O)[O-])cc2[N+](=O)[O-])cc1`, the AC50 in [4] is 16.6 µM (active). Further, the EC50 on Protein RecA is 17.2 µM (active). For the same compound, the IC50 at Large T antigen was 4.86 µM (active).

In the case of `Cc1ccccc1NC(=O)OCc1cn(-c2ccc(Cl)cc2)nn1`, the AC50 on Cytochrome P450 2C19 is 8.91 µM (inconclusive); on Cytochrome P450 2D6, 0.708 µM (inconclusive); on Cytochrome P450 3A4 it was 0.794 µM (inconclusive).

For `CCc1ccccc1NC1=NCC(=O)N1C1CCCCC1`, the EC50 in assay [1] was > 260 µM (inactive).

Regarding `Cc1cc(S(=O)(=O)NCCCN2CCOCC2)ccc1F`, the AC50 at Cytochrome P450 2C19 and on Cytochrome P450 3A4 was 28.2 µM (inconclusive) throughout.

`COc1ccc(OC)c(/C=C/C(=O)c2ccc3c(c2)OCCO3)c1`: the CC50 (in general, the concentration giving 50% cytotoxicity) in the assay with Vero is 18.8 µM (active).

For `COc1ccc(C(=O)NC(=S)Nc2nc(C)c(C(=O)N(C)C)s2)cc1`, the IC50 in assay [2] and in [3] was > 66 µM (inactive) throughout.

As to `O=C(CSc1ncn(-c2ccccc2)n1)Nc1ccc2c(c1)OCCO2`, the IC50 in assay [2] and in assay [3] was > 66 µM (inactive) each time.

For `O=C(NCc1ccc(N2CCCC2=O)cc1)Nc1ccccc1`, in assay [1], the EC50 was > 260 µM (inactive).

In the case of `Cc1ccnc(N2CCCC(C(=O)Nc3ccc(C)c(C)c3)C2)n1` (stereo unspecified), the EC50 in assay [1] was > 260 µM (inactive).

As for `COc1ccc(CNCCc2ccccc2)cc1OCC(N)=O`, the figures for the AC50 on Cytochrome P450 2C19, at Cytochrome P450 3A4 and at Cytochrome P450 2C9 were 6.31 µM (inconclusive), 17.8 µM (inconclusive) and 0.0282 µM (inconclusive), respectively.

With `CC1=Nc2cc(C(=O)O)ccc2Sc2c(C)ccc(C)c21`, the EC50 in assay [1] was > 260 µM (inactive).

Turning to `CO/N=C1/c2cc(OC)ccc2O[C@@H](c2cccc(OC)c2)[C@H]1O`, the AC50 is 3.98 µM (inconclusive) at Cytochrome P450 2C19, 3.16 µM (inconclusive) on Cytochrome P450 2D6 and 6.31 µM (inconclusive) at Cytochrome P450 3A4.

Turning to `CCC(C)c1ccccc1NC(=O)c1cc(C)no1` (stereo unspecified), the EC50 in assay [1] is > 260 µM (inactive).

Regarding `CCCN1C2=NCCCN2c2ccccc21`, the AC50 at Cytochrome P450 2C19 was 20 µM (inconclusive); at Cytochrome P450 3A4 it was 35.5 µM (inconclusive).

In the case of `O=C(CSc1nccc(=O)[nH]1)N1CCCc2ccccc21`, the IC50 in assay [2] and in assay [3] was > 66 µM (inactive) each time.

With `CC1C(=O)N(Cc2cn(Cc3ccco3)nn2)CCS(=O)(=O)N1Cc1ccc(-c2ccccc2)cc1` (stereo unspecified), the half-maximal cytotoxic concentration (CC50) in the assay with Vero is > 25 µM (active).

Turning to `NNC(=O)C1C(O)CCC2CN3CCc4c([nH]c5ccccc45)C3CC21` (stereo unspecified), in the assay with Vero, the CC50 was > 25 µM (active).

With `Cc1ccc(CN2CCN(/N=C/c3ccc(C)s3)CC2)c(C)c1`, the EC50 in assay [1] was > 260 µM (inactive).

In the case of `C[C@@H]1CN([C@@H](C)CO)C(=O)c2cc(C#Cc3ccccc3)cnc2O[C@H]1CN(C)C(=O)CCN1CCCCC1`, in [5], the AC50 was 3.03 µM (active).

Consider `O=C(C1CCCC1)N1CC[C@@H]2[C@H](CO)Nc3ccc(Br)cc3[C@@H]21`, for which the AC50 in assay [5] is 12.7 µM (active).

For `COc1ccc2c3c(n(C)c2c1)[C@@H](CO)N(C(=O)Nc1ccc(F)cc1)CC31CN(C(=O)c2ccc3c(c2)OCO3)C1`, the AC50 in [5] is 5.67 µM (active).

For the compound `CCCNC(=O)Nc1ccc2c(c1)OC[C@@H](C)N(CC1CCCC1)C[C@@H](C)[C@H](OC)CN(C)C2=O`, the AC50 in assay [5] was 6.1 µM (active).

`CCCC(=O)N1CCC2(CC1)CN(Cc1ccncc1)[C@@H](CO)c1[nH]c3cc(OC)ccc3c12`: in assay [5], the AC50 is 7.29 µM (active).
